System: SCC cells
Format: in vivo, C3H/HeN mice
Conditions: 5 mg/kg intraperitoneal twice weekly; Example 7, FIG. 8

Which “tumor growth inhibition compared with the control” value does the source give for “bevacizumab: FDA-approved anti-angiogenic monoclonal antibody that binds the receptor binding domain of VEGF” here?
Its value is “about 74%”.

— patent US8088753B2, “Heparin conjugates and methods” (Mediplex Corporation, Korea, priority 2007, dated 2012)
